Data taken from patent publication US20140041062A1, “GENETICALLY ENGINEERED MOUSE MODEL FOR AUTISM SPECTRUM DISORDER HAVING DELETION OF SHANK2 GENE AND USE THEREOF” (Industry-Academic Cooperation Foundation, Yonsei University, priority 2012, published 2014).
Entries after “also recorded” stand apart in the source; their conditions may differ.

Key:
[1] = tested on: neuroligin-1-deficient mice; conditions: neuroligin-1-deficient mice with reduced NMDA/AMPA ratio; cited from earlier work
Shank2−/− mice [2] = assay: Three-chamber social interaction assay; format: in vivo, mouse
Method: The three-chamber social interaction assay consisted of three phases. In the first phase, a wild-type or Shank2^−/− mouse was placed in the three-chambered apparatus with two small containers in the left or right (not center) chamber, and was allowed to explore the environment freely for 10 min for habituation. After 10 min, the wild-type or Shank2^−/− mouse was gently guided to the center chamber, and the two entrances to the center chamber were blocked while an inaminate object (Object) and a stranger mouse (Stranger 1) were placed in the two containers. Then, the two entrances were opened to allow the mouse in the center to explore the new environment freely for 10 min. In the third phase, the test mouse was gently guided to the center chamber again, with the blockade of the entrances. The Object was replaced with Stranger 2, followed by exploration of the Stranger 1 or 2 by the test mouse for 10 min. Exploration was defined as each instance in which wild-type or Shank2^−/− mouse tries to sniff Object/Stranger, or orients its nose towards and come close to Object/Stranger. Time spent in each chamber was measured by Ethovision 3.1 program (Noldus). Individual movement tracks were analyzed by Ethovision and modified by ImageJ to generate heat maps. In addition to time spent in chamber or in exploration, the present inventors used the preference index, which represents a difference in percent exploration time over the targets (Wang, X. et al. Hum Mol Genet 20, 3093-108 (2011)).
(§1) CDPPB (Ascent scientific) was dissolved in DMSO and polyethylene glycol 400 (DMSO:PEG 400=1:9) to a final concentration of 6 g/l. Wild-type and Shank2^−/− mice received intraperitoneal injection of CDPPB (10 or 3 mg/kg), or the same volume of DSMO-PEG400 mixture, 30 min before three-chamber or other behavioral assays and 40 min before brain sample preparation for immunoblot analyses. D-cycloserine (Ascent Scientific) was dissolved in saline to final concentration of 12 g/l. Wild-type and Shank2^−/− mice received intraperitoneal injection of D-cycloserine (20 mg/kg), or the same volume of saline, 30 min before three-chamber assays.

NMDAR = assay: NMDA/AMPA ratio at hippocampal SC-CA1 synapses of Shank2−/− slices; format: cell-based, mouse; conditions: for NMDA/AMPA ratio: Shank2−/− SC-CA1 synapses / slices; for NMDAR function: Shank2−/− mice, figure legend
Description: Thus, the present inventors measured the NMDA/AMPA ratio at Shank2^−/− SC-CA1 synapses. Indeed, the NMDA/AMPA ratio was reduced relative to wild-type synapses (FIG. 2e).
Reduced NMDAR function and associated signaling may contribute to autism spectrum disorder (ASD)-like behaviors in Shank2^−/− mice.
(§2) Consistent with previous findings, CDPPB also normalized the NMDA/AMPA ratio in Shank2^−/− slices (FIG. 4a). […] The smaller extents of signaling deficits in older mice (8 weeks) relative to younger mice (3-4 weeks) may reflect age-dependent reductions in NMDAR-mediated currents, and/or compensatory changes in NMDAR signaling.

autism = conditions: cited from earlier work
LTP and LTD = conditions: cited from earlier work
Shank3 knockdown = conditions: caused by Shank3 knockdown; cited from earlier work
Shank2−/− mice [3] = assay: Anxiety-like behavior (elevated plus-maze, light-dark test); format: in vivo, mouse; conditions: CDPPB i.p.
Method: The elevated plus-maze consisted of two open arms, two closed arms, and a center area, elevated to a height of 50 cm above the floor. Mice were placed in the center area and allowed to explore the space for 8 min.
The apparatus for light-dark test consisted of light (˜600 lx) and dark (˜5 lx) chambers adhered to each other. An entrance enabled mice to freely move across the light and dark chambers. The size of light chamber was 20×30×20 cm, and that of dark chamber was 20×13×20 cm. Mice were introduced to the center of the light chamber with their heads pointing towards the opposite side of the dark chamber, and allowed to explore the apparatus freely for 10 min. The latency to enter the dark chamber, the time spent in dark and light chambers, and the number of transitions were measured. Transition was defined as the translocation of all four feet of a mouse from one to another chamber.
as §1, with “Wild-type and Shank2^−/− mice received intraperitoneal injection of D-cycloserine (20 mg/kg), or the same volume of saline, 30 min before three-chamber assays.” left out

NMDAR signaling = assay: Immunoblot analysis of NMDAR signaling in Shank2−/− whole brains and synaptosomes after CDPPB treatment; format: in vivo, mouse; conditions: CDPPB i.p. 40 min before brain sample preparation
Method: For whole brain homogenates, mouse brains (3-4 wks) were briefly homogenized in 3 volumes of ice-cold homogenization buffer (0.32 M sucrose, 10 mM HEPES pH7.4, 2 mM EDTA, protease inhibitors, phosphatase inhibitors). Protein concentrations were measured by the Bradford assay. The relative amount of […]α-tubulin was used as a loading control. Synaptosomal fractions were prepared (Blackstone, C. D. et al., J Neurochem 58, 1118-26 (1992)).
as §1
Shank2 deletion may also affect NMDAR-associated signaling that it critically regulates various synaptic events including LTP and LTD (Zhu, J. J. et al. Cell 110, 443-55 (2002); Shepherd, J. D. & Huganir, R. L. Annu Rev Cell Dev Biol 23, 613-43 (2007)). […]

Shank2−/− mice [4] = assay: Repetitive behaviors (jumping) in home cage; format: in vivo, mouse; conditions: CDPPB i.p.
Method: Mice in their home cages with fresh bedding were used to measure times spent in repetitive behaviors including jumping, upright scrabbling, grooming, and digging during 10 min. Jumping was defined as the behavior of a mouse where it rears on it hind legs at the corner of the cage, or along the side walls, and jumps so that the two hind legs are simultaneously off the ground. Upright scrabbling was defined as the behavior of a mouse where it rears on it hind legs at the corner of the cage, or along the side walls, and tries to climb up against the wall with the two hind legs alternatively or coordinately touching the ground. Grooming behavior was defined as stroking or scratching of face, head, or body with the two forelimbs, or licking body parts. Digging behavior was defined as the behavior of a mouse where it coordinately uses two fore legs or hind legs to dig out or displace bedding materials.
as §1, with “Wild-type and Shank2^−/− mice received intraperitoneal injection of D-cycloserine (20 mg/kg), or the same volume of saline, 30 min before three-chamber assays.” left out

Shank2−/− mice [5] = assay: Pup retrieval assay; format: in vivo, mouse; conditions: CDPPB i.p.
Method: Virgin female mice were isolated for four days before pup retrieval assays. Three normal pups (1-d old; C57BL/6N) were placed at three different corners of a home cage of a test female mouse (wild-type or Shank2^−/−), and the female mouse was allowed to retrieve the pups for 10 min. Efficiency of pup retrieval was measured by the time taken to retrieve the first, second, and third pups.
as §1

SC-CA1 synapses = assay: Synaptic plasticity (LTP, LTD) and basal transmission at SC-CA1 synapses of Shank2−/− mice; format: cell-based, mouse
Method: Next, the present inventors measured synaptic transmission at hippocampal Schaffer collaterals-CA1 pyramidal (SC-CA1) synapses. Basal excitatory transmission such as input-output and paired-pulse ratio was unchanged in Shank2^−/− mice (FIGS. 2a and 2b). In addition, spontaneous transmission and membrane excitability were normal in mutant animals. When synaptic plasticity was tested, long-term potentiation (LTP) induced by high frequency stimulation or theta-burst stimulation were severely impaired in Shank2^−/− mice (FIG. 2c). Long-term depression (LTD) induced by low-frequency stimulation was completely abolished also in Shank2^−/− mice (FIG. 2d). Because LTD induced by low-frequency stimulation activates both NMDA and metabotropic glutamate receptors (NMDARs and mGluRs), the present inventors isolated mGluR-LTD by bath-applying DHPG, an agonist of mGluR5, but found no difference between genotypes.
as §2

Shank2−/− mice [6] = assay: Open field assay (hyperactivity); format: in vivo, mouse; conditions: CDPPB i.p.
Method: The size of the open field box was 40×40×40 cm, and the center zone line was 10 cm apart from the edge. Mice were placed in the center of chamber in the beginning of assay, and mouse movements were recorded with a video camera for 60 min, and analyzed by Ethovision 3.1 program (Noldus).
as §1

N[C@@H]1CONC1=O [D-cycloserine]
repetitive grooming [1]: rescue
social interaction (Shank2−/− mice [2]; D-cycloserine 20 mg/kg i.p. 30 min before assay): improved
NMDA/AMPA ratio (NMDAR): fully recovered
NMDAR function (NMDAR): normalizes

GLYX-13
therapeutic effect on autism (autism): showed a therapeutic effect

N#Cc1cccc(C(=O)Nc2cc(-c3ccccc3)nn2-c2ccccc2)c1 [CDPPB]
LTP and LTD (LTP and LTD): enhance
spatial learning (LTP and LTD): enhance
reduced ERK phosphorylation (Shank3 knockdown): restores
reduced excitatory transmission (Shank3 knockdown): restores
anxiety-like behaviors (Shank2−/− mice [3]): did not rescue
NMDAR signaling in synaptosomes (NMDAR signaling; Shank2−/− synaptosomes): fully normalized
NMDAR signaling in whole brains (NMDAR signaling; Shank2−/− whole brains): fully normalized
social interaction (Shank2−/− mice [2]; CDPPB 10 mg/kg i.p. 30 min before assay): substantially improves; also recorded: substantial recoveries
social novelty recognition (Shank2−/− mice [2]; CDPPB i.p.): no effect
social interaction, lower-dose (Shank2−/− mice [2]; lower-dose CDPPB (3 mg/kg i.p.)): did not rescue
repeated jumping (Shank2−/− mice [4]): did not rescue
impaired pup retrieval (Shank2−/− mice [5]): did not rescue
NMDA/AMPA ratio (NMDAR): normalized
NMDAR function (NMDAR): normalizes
basal synaptic transmission (SC-CA1 synapses): without affecting
impaired LTD at SC-CA1 synapses (SC-CA1 synapses): restored
impaired LTP at SC-CA1 synapses (SC-CA1 synapses): restored
hyperactivity (Shank2−/− mice [6]): did not rescue

O=C(Nc1cc(-c2ccccc2)nn1-c1ccccc1)c1ccc([N+](=O)[O-])cc1 [VU-29]
LTP and LTD (LTP and LTD): enhance
spatial learning (LTP and LTD): enhance
